ChEMBL document CHEMBL3044658, “Synthesis and analgesic activity of new 1,3,4-oxadiazoles and 1,2,4-triazoles” (2011)

How the values were obtained:
Format in all cases: functional
Mus musculus [1] = assay: Analgesic activity in Mus musculus NMRI (mouse) assessed as inhibition of late phase of formalin-induced nociception at 30 umol/kg, ip administered 30 min before formalin injection relative to mefenamic acid
Mus musculus [2] = assay: Analgesic activity in Mus musculus NMRI (mouse) assessed as inhibition of early phase of formalin-induced nociception at 30 umol/kg, ip administered 30 min before formalin injection relative to control
Mus musculus [3] = assay: Analgesic activity in Mus musculus NMRI (mouse) assessed as inhibition of late phase of formalin-induced nociception at 30 umol/kg, ip administered 30 min before formalin injection relative to control

Compound	Ratio (Mus musculus [1])	inhibition in vivo at 30 µmol/kg (Mus musculus [2]) [%]	inhibition in vivo at 30 µmol/kg (Mus musculus [3]) [%]
Nc1nnc(-c2ccccc2S(=O)(=O)c2ccccc2)o1	0.91	40.5	68.3
Nc1nnc(-c2ccccc2Sc2ccccc2Cl)o1	0.89	26.7	67.1
S=c1[nH]nc(-c2ccccc2Sc2ccccc2)[nH]1	1.06	49.4	79.6
[O-][S+](c1ccccc1)c1ccccc1-c1n[nH]c(=S)[nH]1 (stereo not given)	0.85	31.7	63.3
O=S(=O)(c1ccccc1)c1ccccc1-c1n[nH]c(=S)[nH]1	0.87	31.2	64.9
S=c1[nH]nc(-c2ccccc2Sc2ccccc2)o1	0.95	13.1	71.3
[O-][S+](c1ccccc1)c1ccccc1-c1n[nH]c(=S)o1 (stereo not given)	1.15	40.9	86.1
O=S(=O)(c1ccccc1)c1ccccc1-c1n[nH]c(=S)o1	0.77	41.9	58
S=c1[nH]nc(-c2ccccc2Sc2ccccc2Cl)o1	1.06	16.8	80.5
Nc1nnc(-c2ccccc2Sc2ccccc2)o1	0.85	16.6	63.7
Nc1nnc(-c2ccccc2[S+]([O-])c2ccccc2)o1 (stereo not given)	1.07	29.4	79.9
Cc1cccc(Nc2ccccc2C(=O)O)c1C [MEFENAMIC ACID]	–	24.1	74.9
